The test system of test [1] is immortalized human pleural mesothelial cells (ATCC CRL-9444). Description: TNF-α-induced IL-6 expression in mesothelial cells (ELISA). The test is classed as cell-based. The text has this: In order to examine the efficacy of MMI-0100 ([…]; SEQ ID NO: 1) in inhibiting the production of inflammatory cytokines, an inflammatory response was triggered in vitro by applying TNF-α to immortalized human pleural mesothelial cells (ATCC CRL-9444). A mesothelial cell is a cell type that forms a monolayer of specialized pavement-like cells (mesothelium) that lines the body's abdominal cavities and internal organs. The primary function of this layer, the mesothelium, is to provide a slippery, non-adhesive, and protective surface. Mesothelial cells also are involved in transport of fluid and cells across the peritoneal (abdominal) cavities, antigen presentation, inflammation, tissue repair, coagulation, and tumor cell adhesion. It is well known that mesothelial cells play important role in the peritoneal inflammatory response. In response to bacterial products and macrophage-derived inflammatory cytokines (e.g., TNF-α), mesothelial cells produce Interleukin-1 (IL-1), Interleukin-6 (IL-6), and Interleukin-8 (IL-8), thus amplifying the inflammatory signals and recruiting leukocytes into the infected abdominal cavity.
Expression of inflammatory cytokines was induced by applying 1 or 10 ng/ml of TNF-α to cultured mesothelial cells. Briefly, immortalized human pleural mesothelial cells (ATCC CRL-9444) were grown in Medium199 with Earle's BSS, 0.75 mM L-glutamine (Mediatech Inc., Manassas, Va.), 1.25 g/l sodium bicarbonate (Sigma), 3.3 nM epidermal growth factor (EGF) (MBL International, Woburn, Mass.), 40 nM hydrocortisone (Sigma), 870 nM insulin (MBL International), 20 mM HEPES (Sigma), trace elements mixture B (Mediatech Inc., Waltham, Mass.), 10% fetal bovine serum (FBS) (Hyclone), and 1% penicillin/streptomycin (Mediatech Inc., Waltham, Mass.). […] Human mesothelial cells were treated with two different concentrations (1 and 10 ng/mL) of TNF-α for 2, 6, 12, and 24 hours (data not shown). […] Without TNF-α stimulation, mesothelial cells made negligible amounts of IL-6. […] In subsequent experiments designed to determine whether the MMI-0100 peptide ([…]; SEQ ID NO: 1) could reduce TNF-α induced IL-6 expression, both 1 and 10 ng/mL of TNF-α were selected as stimuli. 10 ng/mL of TNF-α is regarded as more physiologically relevant for mesothelial cells.
Prior to cytokine and/or inhibitor treatment, cells were allowed to acclimate in serum-free media consisting of only Medium 199 with Earle's BSS, 0.75 mM L-glutamine, 1.25 g/l sodium bicarbonate, 20 mM HEPES, trace elements mixture B (Mediatech Inc., Waltham, Mass.), and 1% penicillin/streptomycin (Mediatech Inc., Waltham, Mass.) for 24 hours. After the adapting period, cytokines (TNF-α and IL-1β) with or without MMI-0100 peptide or Rottlerin (Tocris Bioscience, Ellisville, Mo.; IC50=5 μM) were added to the media in order to compare the efficacy of MMI-0100 ([…]; SEQ ID NO: 1) with that of Rottlerin. Specifically, serum-starved mesothelial cells were treated with two different concentrations (1000 μM or 3000 μM) of MMI-0100 ([…] (SEQ ID NO: 1)) at three different time points (6 hours, 12 hours, and 24 hours) using two different concentrations of TNF-α (1 ng/ml or 10 ng/ml) or using 1 ng/ml of IL-1β. Average concentration of IL-6 (pg/ml per 10^5 cells) at each time was determined by cytokine-specific ELISA.

The test system of test [2] is human saphenous vein (HSV). Description: Sodium nitroprusside-induced relaxation of human saphenous vein in muscle bath. The following applies: control peptide 50 or 100 μM; data not shown. As for the experimental part:
In preparation for testing vein segment functional viability, HSV rings were weighed and their lengths recorded. To focus on smooth muscle responses, the endothelium was mechanically denuded by rolling the luminal surface of each ring at the tip of a fine vascular forceps before suspension in a muscle bath containing a bicarbonate buffer (120 mM NaCl, 4.7 mM KCl, 1.0 mM MgSO4, 1.0 mM NaH2PO4, 10 mM glucose, 1.5 mM CaCl2, and 25 mM […], pH 7.4) equilibrated with 95% O2 and 5% CO2 at 37° C. The rings were stretched and the length progressively adjusted until maximal tension was obtained. Normalized reactivity was obtained by determining the passive length-tension relationship for each vessel segment. Rings were maintained at a resting tension of 1 g, which produces maximal responses to contractile agonists as previously determined, and equilibrated for 2 hours in buffer. Force measurements were obtained using a Radnoti Glass Technology (Monrovia, Calif.) force transducer (159901A) interfaced with a Powerlab data acquisition system and Chart software (AD Instruments, Colorado Springs, Colo.).
HSV rings were first contracted with 110 mM KCl (with equimolar replacement of NaCl in bicarbonate buffer) and the generated force was measured. 110 mM KCl causes membrane depolarization, leading to contraction of vessels containing functionally viable smooth muscle. After multiple KCl challenges, rings were washed and allowed to equilibrate in bicarbonate solution for 30 min, and then contracted with phenylephrine (PE, 10^−7-10^−6 M). Rings were relaxed with a cumulative log dose of sodium nitroprusside (SNP), a nitric oxide donor, and the force generated was recorded. All rings were again washed and equilibrated in buffer for 15 minutes. Rings were then incubated with either buffer alone or buffer plus 100 μM of MMI-0100 ([…] (SEQ ID NO: 1)) for 2 hours, followed by treatment with the same doses of PE and SNP, and the forces generated again recorded. Measured force was normalized for ring weight and length and percent relaxation was calculated; force generated with 10^−6M of PE was set as 0% relaxation.
The enhancing effect of MMI-0100 ([…]; SEQ ID NO: 1) on smooth muscle relaxation was examined by pre-treating harvested human saphenous vein (HSV) with MMI-0100 ([…]; SEQ ID NO: 1) before SNP treatment. Segments of human saphenous vein (HSV) were equilibrated in a muscle bath and pretreated with a control solution (0.01M phosphate-buffered solution, PBS) or MMI-0100 ([…] (SEQ ID NO: 1); 30 μM, 2 hrs), contracted with norepinephrine. and relaxed with increasing doses of sodium nitroprusside (SNP, 0-1 μM). Percentage of relaxation at 0, 0.01, 0.1, and 1.0 μM of SNP was measured. […]

Take `CC(=O)c1c(O)c(C)c(O)c(Cc2c(O)c3c(c(C(=O)/C=C/c4ccccc4)c2O)OC(C)(C)C=C3)c1O` [Rottlerin, reference compound]: in test [1] (1 ng/mL TNF-α, 6 hrs, Rottlerin), the “IL-6 expression compared with TNF-α alone” value is recorded as “significantly increased”. In addition, the IL-6 expression entry in test [1] (1 ng/mL TNF-α, Rottlerin) is on record as “ineffective”; in test [1] (10 ng/mL TNF-α, Rottlerin 1 μM, twenty-four hours), “reduced IL-6 expression”.

With “YARAAARQARA (mammal) [PTD peptide, control peptide (transduction domain, PTD peptide), reference compound]”, the “relaxation response compared to untreated control” value in test [2] is recorded as “no significant difference”.
